Source: US20250026747A1, “COLIBACTIN DERIVATIVES AND METHODS OF TREATING, AMELIORATING, AND/OR PREVENTING CANCER” (priority 2021, published 2025)

Test system: linearized pUC19 DNA
Assay: DNA cross-linking assay with linearized pUC19 DNA, denaturing agarose gel electrophoresis
Assay type: biochemical
Conditions: for DNA interstrand cross-link (ICL) formation: linearized pUC19 DNA
Procedure: FIGS. 6A-6C depict the DNA crosslinking ability of several compounds according to some embodiments. The DNA cross-linking assays employ linear pUC19 DNA. DMSO was used as vehicle (negative control), and 100 μM cisplatin was used as positive controls. The DNA was analyzed by 0.4% NaOH denaturing and agarose gel electrophoresis (90 V, 1.5 h). FIG. 6A depicts the DNA cross-linking comparison of colibactin 770 (3a), stable colibactin 742 (4), and its linear precursor 9 at pH 5.0. FIG. 6B depicts the comparison of the relative DNA cross-linking abilities of colibactin 742 (4) and its linear precursor 9 at pH 5.0. FIG. 6C depicts the comparison of the relative DNA cross-linking abilities of colibactin 742 (4) and its linear precursor 9 at pH 7.0.
FIG. 10 depicts the DNA cross-linking assay employing linear pUC19 DNA and synthetic colibactin (3), 9, and colibactin 742 (4) according to some embodiments. Specifically, 5% DMSO was used as vehicle (negative control), and 100 μM cisplatin was used as positive control. DNA ladder (Lane #1); 5% DMSO (Lane #2); 100 μM cisplatin (Lane #3); 200 μM colibactin (3) (Lane #4); 100 μM colibactin (3) (Lane #5); 10 μM colibactin (3) (Lane #6); 1 μM colibactin (3) (Lane #7); 200 μM 9 (Lane #8); 100 μM 9 (Lane #9); 10 μM 9 (Lane #10); 1 μM 9 (Lane #11); 200 μM colibactin 742 (4) (Lane #12); 100 μM colibactin 742 (4) (Lane #13); 10 μM colibactin 742 (4) (Lane #14); 1 μM colibactin 742 (4) (Lane #15). Conditions (Lane #3): linearized pUC19 DNA (15.4 μM in base pairs), 5% DMSO (vehicle), 100 μM cisplatin, 10 mM citric buffer, pH 5.0, 4 h, 37° C. Conditions (Lanes #4-#7): linearized pUC19 DNA (15.4 μM in base pairs), colibactin (3) (200 μM-1 μM), 5% DMSO, 10 mM citric buffer, pH 5.0, 4 h, 37° C. Conditions (Lanes #8-#11): linearized pUC19 DNA (15.4 μM in base pairs), 9 (200 μM-1 μM), 5% DMSO, 10 mM citric buffer, pH 5.0, 4 h, 37° C. Conditions (Lanes #12-#15): linearized pUC19 DNA (15.4 μM in base pairs), colibactin 742 (4) (200 μM-1 μM), 5% DMSO, 10 mM citric buffer, pH 5.0, 4 h, 37° C. The DNA was analyzed by native, 0.2% NaOH, 0.4% NaOH, and 1% NaOH denaturing agarose gel electrophoresis (90 V, 1.5 h). Linear=linearized DNA in native form, linear-denat.=linearized DNA in denaturing form, linear-XL=linerized DNA cross-linked by colibactins or cisplatin.
FIG. 11 depicts the DNA cross-linking assay employing linear pUC19 DNA and synthetic colibactin fragments 23, 24, and 22. Specifically, 5% DMSO was used as vehicle (negative control), and 100 μM cisplatin was used as positive control. DNA ladder (Lane #1); 5% DMSO (Lane #2); 100 μM cisplatin (Lane #3); 500 μM 23 (Lane #4); 100 μM 23 (Lane #5); 10 μM 23 (Lane #6); 1 μM 23 (Lane #7); 100 nm 23 (Lane #8); 500 μM 24 (Lane #9); 100 μM 24 (Lane #10); 10 μM 24 (Lane #11); 1 μM 24 (Lane #12); 100 nm 24 (Lane #13); 500 μM 22 (Lane #14); 100 μM 22 (Lane #15); 10 μM 22 (Lane #16); 1 μM 22 (Lane #17); 100 nm 22 (Lane #18). Conditions (Lane #2): linearized pUC19 DNA (15.4 μM in base pairs), 5% DMSO (vehicle), 10 mM citric buffer, pH 5.0, 4 h, 37° C. Conditions (Lane #3): linearized pUC19 DNA (15.4 μM in base pairs), 5% DMSO (vehicle), 100 μM cisplatin, 10 mM citric buffer, pH 5.0, 4 h, 37° C. Conditions (Lanes #4-#8): linearized pUC19 DNA (15.4 μM in base pairs), 23 (500 μM-100 nM), 5% DMSO, 10 mM citric buffer, pH 5.0, 4 h, 37° C. Conditions (Lanes #9-#13): linearized pUC19 DNA (15.4 μM in base pairs), 24 (500 μM-1 μM), 5% DMSO, 10 mM citric buffer, pH 5.0, 4 h, 37° C. Conditions (Lanes #14-#18): linearized pUC19 DNA (15.4 μM in base pairs), 22 (500 μM-100 nM), 5% DMSO, 10 mM citric buffer, pH 5.0, 4 h, 37° C. The DNA was analyzed by native, 0.2% NaOH, 0.4% NaOH, and 1% NaOH denaturing agarose gel electrophoresis (90 V, 1.5 h). Linear=linearized DNA in native form, linear-denat.=linearized DNA in denaturing form, linear-XL=DSB/linerized DNA cross-linked by colibactins or cisplatin. […]

| SMILES | DNA interstrand cross-link (ICL) formation (pH 5.0, 4 h, 37° C.) | DNA interstrand cross-link (ICL) formation (pH 7.0, 1 nM-100 μM) | concentration inducing stable DNA ICLs relative to 3a (pH 5.0) | stability of the ICLs under increasingly stringent denaturing conditions (pH 5.0, native, 0.2%, 0.4%, 1% NaOH gels) | DNA alkylation |
| --- | --- | --- | --- | --- | --- |
| C[C@H]1CCC(CC(=O)NC2(C(=O)CC(=O)NCC(=O)c3csc(CCc4csc(CNC(=O)CC(=O)C5(NC(=O)CC6=N[C@@H](C)CC6)CC5)n4)n3)CC2)=N1 [compound 9] | induced stable DNA ICLs | induced stable ICLs | ten-fold lower | comparable to those derived from 3a |  |
| C[C@H]1CCC(C2=C(CC(=O)NCC(=O)c3csc(CCc4csc(CNC(=O)CC5=C(C6=N[C@@H](C)CC6)C(=O)NC5(C)C)n4)n3)C(C)(C)NC2=O)=N1 [compound 22] | failed to form DNA ICLs |  |  |  | lack of DNA alkylation |
| CCOC(=O)c1csc(CNC(=O)CC2=C(C3=N[C@@H](C)CC3)C(=O)NC23CC3)n1 [compound 23, reference compound] | failed to form DNA ICLs |  |  |  |  |
| CCOC(=O)c1nc(C2(O)CNC(=O)C2C2=C(C3=N[C@@H](C)CC3)C(=O)NC23CC3)cs1 (some centres unmarked) [compound 24] | failed to form DNA ICLs |  |  |  |  |
